In general, MIC refers to the smallest concentration in the dilution series that meets the test's criterion for growth inhibition.

Bounds are passed on as bounds.

The experiment relates to Escherichia coli strain ATCC25922. Description: standard microdilution assay to determine minimum inhibitory concentrations (MICs). To be noted: for E. coli ATCC25922 MIC: Escherichia coli strain ATCC25922, microdilution; for MIC: Escherichia coli, ATCC25922, Escherichia coli strain ATCC25922, microdilution, read-out: E. coli ATCC25922 MIC. The class given is cell-based. In short, it runs like this: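 Broth microdilution MIC against E. coli ATCC25922, following CLSI protocols, typically in a 100 microliter final volume. Results reported as +/− relative to a 16 micrograms/ml cutoff.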

On to `NC(N)=NCCCNCc1ccc(-n2cc3cc(-c4cccc(S(=O)(=O)N(CCc5ccc(O)cc5)C5CCNCC5)c4)[nH]c3nc2=O)cc1` [Compound 1214], for which the “E. coli ATCC25922 MIC” value is on record as “+ (a “+” indicates that the compound has an MIC value of 16 micrograms/ml or less)”.
With `N=C(N)NCCCNCc1ccc(-n2cc3cc(-c4cccc(CCCN)c4)[nH]c3nc2=O)cc1` [Compound 1446], the “E. coli ATCC25922 MIC” value is on record as “+ (a “+” indicates that the compound has an MIC value of 16 micrograms/ml or less)”.
Consider `N=C(N)NCCCNCc1ccc(-n2cc3cc(-c4ccc(S(=O)(=O)N(CC5(CO)CC5)C5CCNCC5)cc4)[nH]c3nc2=O)cc1` [Compound 958], for which the “E. coli ATCC25922 MIC” value is “+ (a “+” indicates that the compound has an MIC value of 16 micrograms/ml or less)”.
In the case of `NCc1ccc(-n2cc3cc(-c4cccc(OCCO)c4)[nH]c3nc2=O)cc1` [Compound 1100], the MIC was above 16 µg/mL.
For `CC(CN)CN1CCC(c2cc3cn(-c4ccc(CNCCCNC(=N)N)cc4)c(=O)nc3[nH]2)C1` (mixture of isomers) [Compound 2008a], the “E. coli ATCC25922 MIC” value is “+ (a “+” indicates that the compound has an MIC value of 16 micrograms/ml or less)”.
`NCc1ccc(-n2cc3cc(-c4cccc(OCCCc5ccc(Cl)cc5)c4)[nH]c3nc2=O)cc1` [Compound 1128]: the MIC was above 16 µg/mL.
In the case of `N=C(N)NCCCNCc1ccc(-n2cc3cc(-c4cc(C(=O)N(CCO)CCO)cc(N5CCNCC5)c4)[nH]c3nc2=O)cc1` [Compound 895], the “E. coli ATCC25922 MIC” value is given as “+ (a “+” indicates that the compound has an MIC value of 16 micrograms/ml or less)”.
Take `NCCCNCc1ccc(-c2cn3cc(-c4ccc(Br)cc4)[nH]c3nc2=O)cc1` [Compound 617, 6-{4-[(3-Amino-propylamino)-methyl]-phenyl}-2-(4-bromo-phenyl)-1H-imidazo[1,2-a]pyrimidin-7-one]: the MIC was above 16 µg/mL.
Regarding `COCCOCCOc1cccc(-c2cc3cn(-c4ccc(CNCCCNC(=N)N)cc4)c(=O)nc3[nH]2)c1` [Compound 1101], the MIC was above 16 µg/mL.
Take `NCCCc1c[nH]c2cc(-n3cc4cc(CCS(=O)(=O)C5CCNCC5)[nH]c4nc3=O)ccc12` [Compound 1282]: the MIC was above 16 µg/mL.
In the case of `NCCCNCc1ccc(-c2cn3cc(-c4ccc(S(=O)(=O)N5CC[C@@H](F)C5)cc4)[nH]c3nc2=O)cc1` [Compound 743], the MIC is above 16 µg/mL.
As to `N=C(N)NCCCNCc1ccc(-n2cc3cc(-c4ccc(Cl)c(CCCCN)c4)[nH]c3nc2=O)cc1` [Compound 2089a], the “E. coli ATCC25922 MIC” value is “+ (a “+” indicates that the compound has an MIC value of 16 micrograms/ml or less)”.
On the same count and under the same terms, the same measure for `N=C(N)N[C@@H]1CCN(Cc2ccc(-n3cc4cc(-c5ccc(S(=O)(=O)N(CC6CCOCC6)C6CCNCC6)cc5)[nH]c4nc3=O)cc2)C1` [Compound 1206]: “− (a “−” indicates that the compound has an MIC value greater than 16 micrograms/ml)”; for `CN(CCCO)Cc1cc(-c2cc3cn(-c4ccc(CNCCCNC(=N)N)cc4)c(=O)nc3[nH]2)cc(N2CCNCC2)c1` [Compound 937]: “+ (a “+” indicates that the compound has an MIC value of 16 micrograms/ml or less)”.
As to `NCCCN(CCCN)Cc1ccc(-n2cc3cc[nH]c3nc2=O)cc1` [Compound 154], the MIC is above 16 µg/mL.
As for `N=C(N)NCCCNCc1ccc(-n2cc3cc(-c4ccc(OC(F)(F)F)c(CCCCN)c4)[nH]c3nc2=O)cc1` [Compound 2072a], the “E. coli ATCC25922 MIC” value is “+ (a “+” indicates that the compound has an MIC value of 16 micrograms/ml or less)”.
With `N=C(N)NCCCNCc1ccc(-n2cc3cc(-c4cccc(S(=O)(=O)N(CCN5CCCCC5)C5CCNCC5)c4)[nH]c3nc2=O)cc1` [Compound 1077], the “E. coli ATCC25922 MIC” value is reported as “+ (a “+” indicates that the compound has an MIC value of 16 micrograms/ml or less)”.
As for `NCc1ccc(-n2cc3cc(-c4ccc(S(=O)(=O)N(CCCc5ccc(O)cc5)C5CCNCC5)cc4)[nH]c3nc2=O)cc1` [Compound 1081], the MIC is above 16 µg/mL.

Source of the values: patent US9193731B2, “Antimicrobial compounds and methods of making and using the same” (Melinta Therapeutics, Inc., priority 2009, dated 2015).
